The values that follow come from ChEMBL document CHEMBL6121044, “Discovery of Novel Spirocyclic MAT2A Inhibitors Demonstrating High In Vivo Efficacy in MTAP-Null Xenograft Models” (J Med Chem, 2025).

A value given as a limit tells only on which side of the number the result lay.

In data set [1] the test system is HCT-116. Kind of data set: Antiproliferative activity against MTAP-knock out human HCT-116 cells assessed as maximal inhibition rate at 10 uM measured after 5 days by CTG assay relative to control. In kind it is functional. Conditions: time 5 day.
Data set [2] is described as follows: Microsomal metabolic stability in human liver microsomes assessed as clearance. Format: ADME, Microsome. Conditions: read-out: CLH.
Data set [3] can be described thus: Microsomal metabolic stability in mouse liver microsomes assessed as clearance. Format: ADME, Microsome. The conditions noted are these: read-out: CLH.
In data set [4] the test system is HCT-116. Kind of data set: Anti-tumor activity against human HCT-116 MATP(-/-) cells xenografted in mouse model assessed as tumor growth inhibition at 200 mg/kg QD relative to control. In kind it is functional. The conditions noted are these: read-out: TGI.
Data set [5] deals with HCT-116. Kind of data set: Antiproliferative activity against MTAP-knock out human HCT-116 cells assessed as proliferation inhibition rate measured after 5 days by CTG assay. Format: functional, cell-based. The conditions noted are these: HCT-116, 120 h.
Data set [6] concerns HCT-116. Kind of data set: Anti-tumor activity against human HCT-116 MATP(-/-) cells xenografted in mouse model assessed as tumor growth inhibition at 30 mg/kg QD relative to control. Conditions: read-out: TGI. Format: functional.
A short description of data set [7]: Lipophilicity, log D of compound at pH 7.4 byHPLC method. Conditions: buffer. In kind it is physicochemical.
Data set [8] has as its target S-adenosylmethionine synthase isoform type-2 (Homo sapiens, UniProt P31153). Kind of data set: Inhibition of MAT2A (unknown origin) assessed as release of inorganic phosphate using ATP/L-methionine pre-incubated for 30 mins followed by substrate addition measured after 2.5 hrs by colorimetric assay.
A short description of data set [9]: Half life in male ICR mouse at 10 mg/kg, po and 2 mg/kg, iv measured upto 24 hrs. In kind it is ADME, organism-based. The conditions noted are these: in vivo.
Data set [10] is described as follows: Clearance in male ICR mouse at 10 mg/kg, po and 2 mg/kg, iv measured upto 24 hrs. In kind it is ADME, organism-based. Conditions: in vivo.
The nature of data set [11]: AUC (0 to infinity) in male ICR mouse at 10 mg/kg, po and 2 mg/kg, iv measured upto 24 hrs. In kind it is ADME, organism-based. The conditions noted are these: in vivo.
Data set [12] can be described thus: Volume of distribution at steady state in male ICR mouse at 10 mg/kg, po and 2 mg/kg, iv measured upto 24 hrs. Format: ADME, organism-based. Conditions: in vivo.

S-adenosylmethionine synthase isoform type-2, sequence (P31153 whole entry, canonical isoform): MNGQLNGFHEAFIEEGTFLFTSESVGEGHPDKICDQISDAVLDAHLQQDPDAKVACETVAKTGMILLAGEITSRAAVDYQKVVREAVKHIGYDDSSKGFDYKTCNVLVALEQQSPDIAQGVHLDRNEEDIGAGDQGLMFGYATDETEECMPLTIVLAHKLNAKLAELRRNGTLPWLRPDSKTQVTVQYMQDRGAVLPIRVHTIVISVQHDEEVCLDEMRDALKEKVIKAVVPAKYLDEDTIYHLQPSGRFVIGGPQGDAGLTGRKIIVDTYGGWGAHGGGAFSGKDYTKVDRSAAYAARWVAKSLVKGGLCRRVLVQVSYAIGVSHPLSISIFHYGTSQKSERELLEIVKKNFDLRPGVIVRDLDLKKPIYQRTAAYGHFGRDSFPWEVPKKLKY

For the compound `COc1ccc(-c2c(Nc3ccccn3)[nH]c3c(C4=CCCCC4)c(-c4ccccc4)nn3c2=O)cc1`, the Imax in data set [1] was found to be 100%. Also, the CLint scaled in data set [2] is less than 9.3 mL/min/kg; in data set [3] it was 40.3 mL/min/kg. Further, the inhibition in vivo at 200 mg/kg in data set [4] came out at 52%. Besides, the IC50 in data set [5] was found to be 492 nM.
For `Cn1cnc2c(=O)n(-c3cccnc3C3CC3)c3cc(Cl)ccc3c21`, the inhibition in vivo at 30 mg/kg in [6] amounted to 82.9%.
As to `[2H]C([2H])([2H])NC1=NC(=O)C2(CCc3ncccc32)c2cc(C(F)(F)F)ccc21` (racemic), the Imax in data set [1] amounted to 92%. In data set [7], this compound registered a logD of 1.82. Moreover, the IC50 in data set [8] was 8 nM; in data set [5], 115 nM. Moreover, in [9], the half-life stood at 3.64 h. The CLint scaled in data set [2] was less than 9.3 mL/min/kg; in [3], 42.5 mL/min/kg. The same compound displayed a clearance in data set [10] of 5.13 mL/min/kg. Also, in data set [11], the AUC(0-inf) stood at 56700 ng·h/mL. In [12], this compound showed a Vdss of 1.39 L/kg.
Regarding `NC1=NC(=O)C2(CCc3ncccc32)c2cc(C(F)(F)F)ccc21` (racemic), in data set [1], the Imax amounted to 75.59%. The compound also showed a pH-dependent lipophilicity (logD) in [7] of 1.76. In addition, the values for the half-maximal inhibitory concentration (IC50) in [8] and in data set [5] were 4 nM and 100 nM, respectively. In addition, in data set [9], the half-life stood at 1.92 h. Also, the CLint scaled in [2] and in [3] was less than 9.6 mL/min/kg each time. In data set [10], this compound had a clearance of 8.48 mL/min/kg. Besides, in data set [11], the AUC(0-inf) came to 20400 ng·h/mL. In addition, the Vdss in [12] was 1.68 L/kg.
Take `CNC1=NC(=O)C2(CCc3ncccc32)c2cc(C(F)(F)F)ccc21` (racemic): the Imax in data set [1] is given as 93.27%. For the same compound, the logD in [7] was found to be 1.83. Also, the half-maximal inhibitory concentration (IC50) turned out to be 11 nM in [8] and 97 nM in [5]. The half-life in data set [9] came to 3.53 h. For the same compound, the CLint scaled was less than 9.3 mL/min/kg in data set [2] and 51.2 mL/min/kg in data set [3]. Moreover, the clearance in [10] amounted to 6.77 mL/min/kg. Moreover, the AUC(0-inf) in data set [11] stood at 35200 ng·h/mL. Further, the Vdss in data set [12] came to 2.2 L/kg.

A word on the IC50: it is the point on the concentration scale where inhibition reaches its midpoint. By logD is commonly meant lipophilicity at a set pH, counting ionised and neutral species. Read a low logD as lower lipophilicity. The term half-life denotes how long it takes for the measured level to halve. Lower therefore signals fast loss. By AUC(0-inf) is commonly meant total exposure, with the tail of the curve extrapolated. High values mean more exposure, low ones less exposure.
